Experimental data published in patent publication US20260132132A1, “3A,4,5,6-TETRAHYDRO-1 H-PYRAZOLO[3,4-C]PYRIDIN-7(7AH)-ONE DERIVATIVES AS FACTOR XIIA INHIBITORS” (KALVISTA PHARMACEUTICALS LIMITED, priority 2022, published 2026).

Legend:
FXa = FXa (Homo sapiens, UniProt P00742); assay: Related protease inhibition: FXa, fluorogenic substrate; type: biochemical; details: fluorogenic substrate at Km, 25° C., H1-H3 = % activity at 40 μM; for activity at 40 µM: read-out: IC50 (human FXa) nM
Protocol: (§1) Human serine protease enzyme Plasma Kallikrein, KLK1, FXa, Plasmin, Thrombin and Trypsin were assayed for enzymatic activity using an appropriate fluorogenic substrate at Km concentration, FXIa at fixed substrate concentration of 100 μM and various concentrations of the test compound.

[1] = target: T1, Human Factor XIIa (hFXIIa) (Homo sapiens, UniProt P00748); assay: Determination of Human Factor XIIa (hFXIIa) inhibition, fluorogenic substrate IC50 assay; type: biochemical; details: fluorogenic substrate H-DPro-Phe-Arg-AFC at Km, 25° C., read-out: Human FXIIa IC50
T1 construct: purchased Enzyme Research Laboratories
T1 sequence (P00748 373-615 limits assumed): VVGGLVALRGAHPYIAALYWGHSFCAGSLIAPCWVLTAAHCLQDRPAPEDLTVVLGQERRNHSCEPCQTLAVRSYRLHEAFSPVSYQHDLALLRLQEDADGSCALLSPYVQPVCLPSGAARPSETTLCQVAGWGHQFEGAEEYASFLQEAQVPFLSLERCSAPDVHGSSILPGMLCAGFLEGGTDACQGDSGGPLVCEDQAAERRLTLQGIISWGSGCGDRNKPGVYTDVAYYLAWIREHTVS
T1 sequence (P00748 20-372 partner limits assumed): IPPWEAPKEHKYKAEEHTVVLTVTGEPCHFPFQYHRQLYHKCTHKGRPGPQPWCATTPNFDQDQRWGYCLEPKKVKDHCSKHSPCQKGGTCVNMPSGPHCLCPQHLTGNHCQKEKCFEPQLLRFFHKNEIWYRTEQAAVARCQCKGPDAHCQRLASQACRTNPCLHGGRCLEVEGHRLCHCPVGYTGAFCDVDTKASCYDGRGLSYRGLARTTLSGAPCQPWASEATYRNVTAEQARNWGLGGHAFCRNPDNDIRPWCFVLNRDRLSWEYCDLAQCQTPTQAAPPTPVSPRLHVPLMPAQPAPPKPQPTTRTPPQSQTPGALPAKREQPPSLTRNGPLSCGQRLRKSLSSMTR
Protocol: Determination of Human Factor XIIa (hFXIIa) inhibition
The Km for the cleavage of the substrate by hFXIIa was determined by standard transformation of the Michaelis-Menten equation, with subsequent inhibition assays performed at substrate Km concentration.

Thrombin = Thrombin (Homo sapiens, UniProt P00734); assay: Related protease inhibition: Thrombin, fluorogenic substrate; type: biochemical; details: fluorogenic substrate at Km, 25° C.; H1-H3 = % activity at 40 μM; read-out: IC50 (human thrombin) nM
Protocol: as §1

[2] = Pharmacokinetics following a single intravenous dose and a single oral dose in rats; type: in vivo; details: rat, male Sprague-Dawley rats, single iv dose (nominal 1 mg/kg) and single oral dose (nominal 5 mg/kg) in 10% DMSO/10% Cremophor EL/80% SWFI, plasma by LCMS, Phoenix WinNonlin; for bioavailability: read-out: F % (oral bioavailability); for half-life: route for T½ not stated
Protocol: Pharmacokinetic studies of the compounds in Table 10 were performed to assess the pharmacokinetics following a single intravenous dose and a single oral dose in male Sprague-Dawley rats. Two rats were given a single intravenous dose of 1 ml/kg of a nominal 1 mg/ml (1 mg/kg) composition of test compound in 10% DMSO/10% Cremophor EL/80% SWFI vehicle. Two rats were given a single oral dose of 5 mL/kg of a nominal 1 mg/ml (5 mg/kg) composition of test compound in 10% DMSO/10% Cremophor EL/80% SWFI vehicle.
Following intravenous dosing, blood samples were collected over a period of 12 h. Sample times were 2, 5, 15 and 30 min then 1, 2, 4, 6, and 12 h. Following oral dosing, blood samples were collected over a period of 24 h. Sample times were 5, 15 and 30 min then 1, 2, 4, 6, 8, 12 and 24 h.
Following collection, blood samples were centrifuged and the plasma fraction analysed for concentration of test compound by LCMS. Oral bioavailability and half-life calculations from these studies were obtained using Phoenix WinNonlin (v8.0) and are shown below: […]

[3] = tested on: patients with type I/II hereditary angioedema (HAE); details: phase 3 study; monthly prophylactic subcutaneous treatment; cited from earlier work

Chain of FXa (P00742 235-488 limits assumed): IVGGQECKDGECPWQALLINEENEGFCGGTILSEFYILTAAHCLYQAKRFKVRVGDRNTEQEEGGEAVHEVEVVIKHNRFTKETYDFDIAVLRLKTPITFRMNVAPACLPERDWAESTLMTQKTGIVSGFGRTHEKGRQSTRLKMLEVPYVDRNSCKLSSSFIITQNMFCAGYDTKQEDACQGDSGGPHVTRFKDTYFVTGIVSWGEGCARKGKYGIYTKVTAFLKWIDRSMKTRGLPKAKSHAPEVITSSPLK
Chain of FXa (P00742 41-179 partner limits assumed): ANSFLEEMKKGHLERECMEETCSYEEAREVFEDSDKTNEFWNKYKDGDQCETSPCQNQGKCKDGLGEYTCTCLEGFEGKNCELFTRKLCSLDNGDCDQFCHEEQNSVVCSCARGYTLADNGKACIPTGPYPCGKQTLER

CN1CCOc2ccc(N3CCc4c(C(=O)N[C@@H](CO)C5CC5)nn(-c5cccc(Cl)c5F)c4C3=O)cc2C1=O [Example 2049, (R)-1-(3-chloro-2-fluorophenyl)-N-(1-cyclopropyl-2-hydroxyethyl)-6-(4-methyl-5-oxo-2,3,4,5-tetrahydrobenzo[f][1,4]oxazepin-7-yl)-7-oxo-4,5,6,7-tetrahydro-1H-pyrazolo[3,4-c]pyridine-3-carboxamide]
activity at 40 µM (FXa): < 20%
IC50 [1]: 10 to 100 nM
activity at 40 µM (Thrombin): > 80%
bioavailability [2]: 28%
half-life [2]: 1.42 h

Cc1cc(C)c(CNC(=O)c2nn(-c3cccc(Cl)c3)c3c2CCN(c2ccc4c(c2)CN(CCO)CC4)C3=O)cn1 [Example 1128, 1-(3-Chlorophenyl)-N-((4,6-dimethylpyridin-3-yl)methyl)-6-(2-(2-hydroxyethyl)-1,2,3,4-tetrahydroisoquinolin-7-yl)-7-oxo-4,5,6,7-tetrahydro-1H-pyrazolo[3,4-c]pyridine-3-carboxamide]
IC50 (FXa): 10000 to 40000 nM
IC50 [1]: 10 to 100 nM
bioavailability [2]: 27%
half-life [2]: 4.55 h

CN1CCc2ccc(N3CCc4c(C(=O)N[C@@H]5CCOC5)nn(-c5cccc(Cl)c5F)c4C3=O)cc2C1=O [Example 2039, (R)-1-(3-chloro-2-fluorophenyl)-6-(2-methyl-1-oxo-1,2,3,4-tetrahydroisoquinolin-7-yl)-7-oxo-N-(tetrahydrofuran-3-yl)-4,5,6,7-tetrahydro-1H-pyrazolo[3,4-c]pyridine-3-carboxamide]
IC50 (FXa): > 40000 nM
IC50 [1]: 100 to 300 nM
bioavailability [2]: 27%
half-life [2]: 0.75 h

Cc1cc(CNC(=O)c2nn(-c3cccc(Cl)c3)c3c2CCN(c2cc4c(cn2)CCN(CCO)C4)C3=O)nn1C [Example 1220, 1-(3-chlorophenyl)-N-((1,5-dimethyl-1H-pyrazol-3-yl)methyl)-6-(6-(2-hydroxyethyl)-5,6,7,8-tetrahydro-2,6-naphthyridin-3-yl)-7-oxo-4,5,6,7-tetrahydro-1H-pyrazolo[3,4-c]pyridine-3-carboxamide]
IC50 (FXa): 10000 to 40000 nM
IC50 [1]: 10 to 100 nM
bioavailability [2]: 22%
half-life [2]: 1.17 h

O=C(NCC1CC1)c1nn(-c2cccc(Cl)c2)c2c1CCN(c1ccc3c(c1)CN(CCO)CC3)C2=O [Example 1055, 1-(3-Chlorophenyl)-N-(cyclopropylmethyl)-6-(2-(2-hydroxyethyl)-1,2,3,4-tetrahydroisoquinolin-7-yl)-7]
IC50 (FXa): > 40000 nM
IC50 [1]: 10 to 100 nM
bioavailability [2]: 55%
half-life [2]: 4.62 h

CN1CCc2ccc(N3CCc4c(C(=O)N[C@H](CO)c5ccccc5)nn(-c5cccc(Cl)c5)c4C3=O)cc2C1 [Example 1024, (S)-1-(3-Chlorophenyl)-N-(2-hydroxy-1-phenylethyl)-6-(2-methyl-1,2,3,4-tetrahydroisoquinolin-7-yl)-7-oxo-4,5,6,7-tetrahydro-1H-pyrazolo[3,4-c]pyridine-3-carboxamide]
IC50 (FXa): 1000 to 3000 nM
IC50 [1]: 100 to 300 nM
bioavailability [2]: 36%
half-life [2]: 5.47 h

CN1CCc2ccc(N3CCc4c(C(=O)NCC5CC5)nn(-c5cccc(Cl)c5)c4C3=O)cc2C1=O [Example 1149, 1-(3-chlorophenyl)-N-(cyclopropylmethyl)-6-(2-methyl-1-oxo-1,2,3,4-tetrahydroisoquinolin-7-yl)-7-oxo-4,5,6,7-tetrahydro-1H-pyrazolo[3,4-c]pyridine-3-carboxamide]
IC50 (FXa): > 40000 nM
IC50 [1]: 300 to 1000 nM
bioavailability [2]: 56%
half-life [2]: 2.22 h

Garadacimab: "a monoclonal antibody inhibitory against FXIIa"
attacks in patients with type I/II hereditary angioedema (HAE) [3]: reduce attacks

CN1CCOc2ccc(N3CCc4c(C(=O)N[C@@H]5CCOC5)nn(-c5cccc(Cl)c5F)c4C3=O)cc2C1=O [Example 2048, (R)-1-(3-chloro-2-fluorophenyl)-6-(4-methyl-5-oxo-2,3,4,5-tetrahydrobenzo[f][1,4]oxazepin-7-yl)-7-oxo-N-(tetrahydrofuran-3-yl)-4,5,6,7-tetrahydro-1H-pyrazolo[3,4-c]pyridine-3-carboxamide]
activity at 40 µM (FXa): 20 to 80%
IC50 [1]: 10 to 100 nM
activity at 40 µM (Thrombin): > 80%
bioavailability [2]: 57%
half-life [2]: 0.817 h
